{"source": "ChEMBL document CHEMBL1155255", "about": "“Ruthenium complexes endowed with potent anti-Trypanosoma cruzi activity: Synthesis, biological characterization and structure-activity relationships” (Bioorg Med Chem, 2009)", "key": {"Trypanosoma cruzi [1]": {"system": "Trypanosoma cruzi", "assay": "Antitrypanosomal activity against Trypanosoma cruzi Y epimastigote form after 11 days by Trypan blue exclusion method", "assay_type": "functional, organism-based", "settings": "264 h"}, "[2]": {"assay": "Cytotoxicity against BALB/c mouse splenocytes after 24 hrs by [3H]thymidine incorporation assay", "assay_type": "cell-based", "settings": "splenocyte"}, "Trypanosoma cruzi [3]": {"system": "Trypanosoma cruzi", "assay": "Antitrypanosomal activity against Trypanosoma cruzi Y trypomastigote form after 24 hrs by Trypan blue exclusion method", "assay_type": "functional, organism-based"}}}
{"smiles": "O=C1CSC(N/N=C\\CSc2ccc(Br)cc2)=N1", "values": [{"measurement": "IC50", "setting": "Trypanosoma cruzi [1]", "value": 42.9, "unit": "µM"}, {"measurement": "Activity", "setting": "[2]", "value": "> 100", "unit": "µg/mL"}]}
{"smiles": "Cc1ccc(SC/C=N\\NC2=NC(=O)C(C)S2)cc1", "note": "(stereo unspecified)", "values": [{"measurement": "IC50", "setting": "Trypanosoma cruzi [1]", "value": 63.4, "unit": "µM"}, {"measurement": "Activity", "setting": "[2]", "value": "> 100", "unit": "µg/mL"}, {"measurement": "IC50", "setting": "Trypanosoma cruzi [3]", "value": 84.8, "unit": "µM"}]}
{"smiles": "C/C(CSc1ccccc1)=N/NC1=NC(=O)C(C)S1", "note": "(stereo unspecified)", "values": [{"measurement": "IC50", "setting": "Trypanosoma cruzi [1]", "value": 83.3, "unit": "µM"}, {"measurement": "Activity", "setting": "[2]", "value": "> 100", "unit": "µg/mL"}]}
{"smiles": "O=C1CSC(N/N=C\\CSc2ccccc2)=N1", "values": [{"measurement": "IC50", "setting": "Trypanosoma cruzi [1]", "value": 35, "unit": "µM"}, {"measurement": "Activity", "setting": "[2]", "value": "> 100", "unit": "µg/mL"}, {"measurement": "IC50", "setting": "Trypanosoma cruzi [3]", "value": 7.8, "unit": "µM"}]}
{"smiles": "CCC1SC(N/N=C\\CSc2ccccc2)=NC1=O", "note": "(stereo unspecified)", "values": [{"measurement": "IC50", "setting": "Trypanosoma cruzi [1]", "value": 0.3, "unit": "µM"}, {"measurement": "Activity", "setting": "[2]", "value": "> 100", "unit": "µg/mL"}, {"measurement": "IC50", "setting": "Trypanosoma cruzi [3]", "value": 48.2, "unit": "µM"}]}
{"smiles": "O=C1CSC(N/N=C\\CSc2ccc(Cl)cc2)=N1", "values": [{"measurement": "IC50", "setting": "Trypanosoma cruzi [1]", "value": 43.9, "unit": "µM"}, {"measurement": "Activity", "setting": "[2]", "value": "> 100", "unit": "µg/mL"}, {"measurement": "IC50", "setting": "Trypanosoma cruzi [3]", "value": 82.4, "unit": "µM"}]}
{"smiles": "O=C(Cn1ccnc1[N+](=O)[O-])NCc1ccccc1", "note": "[BENZNIDAZOLE]", "values": [{"measurement": "IC50", "setting": "Trypanosoma cruzi [1]", "value": 6.6, "unit": "µM"}, {"measurement": "Activity", "setting": "[2]", "value": 25, "unit": "µg/mL"}]}
{"smiles": "CC1CS(=O)(=O)CCN1/N=C/c1ccc([N+](=O)[O-])o1", "note": "(stereo unspecified) [NIFURTIMOX]", "values": [{"measurement": "IC50", "setting": "Trypanosoma cruzi [1]", "value": 1.9, "unit": "µM"}, {"measurement": "Activity", "setting": "[2]", "value": 1, "unit": "µg/mL"}]}
{"smiles": "Cc1ccc(SC/C=N\\NC2=NC(=O)CS2)cc1", "values": [{"measurement": "IC50", "setting": "Trypanosoma cruzi [1]", "value": 92.3, "unit": "µM"}, {"measurement": "Activity", "setting": "[2]", "value": "> 100", "unit": "µg/mL"}, {"measurement": "IC50", "setting": "Trypanosoma cruzi [3]", "value": 20, "unit": "µM"}]}
{"smiles": "O=C1CSC(N/N=C\\CCSc2ccccc2)=N1", "values": [{"measurement": "IC50", "setting": "Trypanosoma cruzi [1]", "value": 2.9, "unit": "µM"}, {"measurement": "Activity", "setting": "[2]", "value": "> 100", "unit": "µg/mL"}, {"measurement": "IC50", "setting": "Trypanosoma cruzi [3]", "value": 10, "unit": "µM"}]}
